# ± gives the standard deviation of the averaged measurements.
# System: HepaRG
# Assay: LDH release cytotoxicity, % of total lysis control; higher = more cytotoxic
# Details: 48 h
# How it was run: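 Percent cytotoxicity was scaled between on-plate vehicle and total lysis controls, then averaged over duplicate wells. The cells were single-lot HepaRG on collagen I-coated 96-well plates, exposed for 48 h to eight-point half-log test chemical series topping at 100 µM in serum-free induction medium with 0.5% DMSO. Total lysis wells got 0.1% Triton X, and LDH in 50 µL spent medium was read as resorufin fluorescence (CytoTox-ONE, Tecan Safire).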
Compound,LDH release cytotoxicity (0.03162 µM) [%],LDH release cytotoxicity (0.1 µM) [%],LDH release cytotoxicity (0.3162278 µM) [%],LDH release cytotoxicity (1 µM) [%],LDH release cytotoxicity (3.16228 µM) [%],LDH release cytotoxicity (10 µM) [%],LDH release cytotoxicity (31.6228 µM) [%],LDH release cytotoxicity (100 µM) [%]
CCN(CC)C(=O)SCc1ccc(Cl)cc1 [Thiobencarb],-1.69 ± 0.22,-1.48 ± 0.59,-1.6 ± 2.2,-2.11 ± 1.5,-1.17 ± 1,-1.78 ± 1.8,-1.01 ± 1.6,2.18 ± 1.2
CSC(C)=NOC(=O)N(C)SN(C)C(=O)ON=C(C)SC [Thiodicarb],0.264 ± 0.45,0.37 ± 0.55,-0.268 ± 0.33,0.546 ± 0.75,0.811 ± 0.23,1.07 ± 0.71,1.06 ± 0.2,1.18 ± 0.48
COC(=O)NC(=S)Nc1ccccc1NC(=S)NC(=O)OC [Thiophanate-methyl],-1.04 ± 0.2,-0.552 ± 0.3,-0.928 ± 0.03,-1.83 ± 0.058,-0.882 ± 0.41,0.238 ± 0.4,0.796 ± 0.9,8.47 ± 0.31
CN(C)C(=S)SSC(=S)N(C)C [Thiram],-1.63 ± 0.73,-2.1 ± 1.1,-2.29 ± 0.55,-1.46 ± 0.3,-2.28 ± 0.41,-1.86 ± 0.66,-1.13 ± 0.084,2.802 ± 0.022
Cc1ccc(C(C)C)c(O)c1 [Thymol],-0.805 ± 1.1,-0.378 ± 0.63,-1.08 ± 0.33,-0.734 ± 0.81,-1.25 ± 0.71,-0.124 ± 0.09,0.381 ± 0.15,1.26 ± 0.35
O=C(O)Cc1cc(I)c(Oc2ccc(O)c(I)c2)c(I)c1 [Tiratricol],1.48 ± 0.13,1.09 ± 1.1,1.5 ± 1.1,0.13 ± 0.074,0.965 ± 0.74,0.402 ± 0.0063,-0.312 ± 0.0079,21.5 ± 18
Cc1ccc(S(=O)(=O)NC(=O)NN2CCCCCC2)cc1 [Tolazamide],-1.21 ± 0.35,-1.21 ± 0.45,-1.26 ± 0.85,-1.16 ± 0.26,-0.648 ± 0.45,-0.378 ± 0.45,-0.0919 ± 0.11,1.58 ± 1.5
"Cc1ccc(N=C=O)cc1N=C=O [Toluene 2,4-diisocyanate]",-1.18 ± 0.59,-1.26 ± 0.15,-1.96 ± 0.45,-1.55 ± 0.2,-1.52 ± 0.076,-0.759 ± 0.27,4.408 ± 0.042,11.5 ± 1.5
CCON=C(CC)C1C(=O)CC(c2c(C)cc(C)cc2C)CC1=O (configuration not stated) [Tralkoxydim],-1.61 ± 1.5,-2.54 ± 0.76,-2.84 ± 0.85,-1.69 ± 0.41,-3.18 ± 0.7,-2.04 ± 0.19,-1.88 ± 0.12,-0.758 ± 0.81

# Reference: the supplement of paper PMC7840683
